Source: ChEMBL document CHEMBL1201862, “PubChem BioAssay data set” (2004)
Active and inactive are the calls of the source.

How the values were obtained:
[1] = A Cell Based Secondary Assay To Explore Cytotoxicity of Compounds that Sensitize Mycobacterium Tuberculosis to Beta-Lactam Antibiotics.; type: functional
[2] = biological target: T1, Estrogen receptor (Homo sapiens, UniProt P03372); assay: ERα coactivator recruitment enhancers – biochemical, TR-FRET, ERα LBD, dose response (AID 737)
T1 sequence (P03372 whole entry): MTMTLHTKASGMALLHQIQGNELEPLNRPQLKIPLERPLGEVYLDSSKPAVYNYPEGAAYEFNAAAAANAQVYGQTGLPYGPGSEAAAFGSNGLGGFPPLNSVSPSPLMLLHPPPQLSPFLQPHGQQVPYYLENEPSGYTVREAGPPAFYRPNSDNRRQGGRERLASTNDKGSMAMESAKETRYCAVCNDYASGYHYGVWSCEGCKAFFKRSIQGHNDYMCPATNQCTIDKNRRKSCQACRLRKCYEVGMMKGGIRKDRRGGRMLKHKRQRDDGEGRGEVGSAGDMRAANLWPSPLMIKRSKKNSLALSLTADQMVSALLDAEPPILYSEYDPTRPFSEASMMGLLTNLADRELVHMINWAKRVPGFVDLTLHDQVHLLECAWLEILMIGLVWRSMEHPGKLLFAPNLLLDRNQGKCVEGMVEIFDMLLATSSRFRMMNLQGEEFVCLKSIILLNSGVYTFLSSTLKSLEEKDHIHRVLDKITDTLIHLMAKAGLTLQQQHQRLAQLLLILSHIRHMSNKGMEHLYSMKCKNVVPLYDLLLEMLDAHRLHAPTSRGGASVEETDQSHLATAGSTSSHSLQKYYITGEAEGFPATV

[3] = glucagon-like peptide-1 release potency in STC-1, concentration-response, half-maximal inhibitory concentration in the STC-1 line (AID 1117345); type: functional, cell-based
[4] = Potency on glucagon-like peptide 1 release, dose-response in NCI-H716 cell line, half maximal inhibitory concentration (AID 1117344); type: functional, cell-based
[5] = biological target: T2, Estrogen receptor beta (Homo sapiens, UniProt Q92731); assay: blockers of SRC-3 recruitment to ERβ – biochemical, ELISA, streptavidin-HRP readout, orthogonal assay, confirmation (AID 1060)
[6] = biological target: T2, Estrogen receptor beta
[7] = system: BJ; assay: BJ-TERT-LT-ST fibroblast viability loss – cell-based, RAS-independent, luminescence, dose response (AID 1935); type: functional; details: Homo sapiens;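 note: BJ fibroblasts immortalized with TERT plus LT and ST oncogenes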
[8] = system: BJ; assay: growth inhibition of engineered Ras-driven BJ cells – cell-based, alamar blue fluorescence, cherrypicked samples, dose response (AID 2631); type: functional; details: Homo sapiens;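 note: confirmatory dose-response assay in RAS-dependent BJ fibroblasts engineered with TERT, LT and ST, with cytotoxicity read by fluorescence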
[9] = biological target: T3, Heat shock factor protein 1 (Mus musculus, UniProt P38532); assay: enhancement of HSF1-driven luciferase signal – cell-based, NIH3T3, luminescence, dose retest, confirmation (AID 435004); type: functional;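 note: stress induced by proteasome inhibitor MG132 added 30 min after compound; luciferase reporter driven by HSF1 response element in NIH3T3 cells; actives raise luminescence as potentiators of the MG132 stress response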
T3 sequence (P38532 whole entry): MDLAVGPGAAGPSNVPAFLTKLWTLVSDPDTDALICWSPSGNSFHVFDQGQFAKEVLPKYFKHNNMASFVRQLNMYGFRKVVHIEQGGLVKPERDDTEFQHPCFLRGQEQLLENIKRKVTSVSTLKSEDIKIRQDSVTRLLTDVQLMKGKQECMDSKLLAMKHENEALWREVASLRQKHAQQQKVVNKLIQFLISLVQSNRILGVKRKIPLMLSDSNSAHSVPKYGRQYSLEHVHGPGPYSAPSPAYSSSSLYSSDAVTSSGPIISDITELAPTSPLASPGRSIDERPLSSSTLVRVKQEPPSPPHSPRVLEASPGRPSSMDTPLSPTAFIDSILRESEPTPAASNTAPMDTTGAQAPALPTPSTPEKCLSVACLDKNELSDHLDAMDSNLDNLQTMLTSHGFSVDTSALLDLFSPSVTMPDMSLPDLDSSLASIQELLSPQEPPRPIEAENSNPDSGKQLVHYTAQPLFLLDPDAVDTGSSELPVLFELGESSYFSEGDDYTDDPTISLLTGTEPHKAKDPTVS

[10] = biological target: Galanin receptor type 2 (Homo sapiens, UniProt O43603); assay: Dose Response cell-based high-throughput screening assay to identify antagonists of galanin receptor 2 (GALR2). [Related pubchem assays: 828, 866 ]; type: functional
[11] = DRD fibroblast viability loss – cell-based, non-viral oncogenic, luminescence, dose response (AID 1934); type: functional; details: Homo sapiens
[12] = system: BJ; assay: cells; type: functional, cell-based; details: Homo sapiens
[13] = Fluorescence-based cell-based high throughput dose response assay for inhibitors of the interaction of nucleotide-binding oligomerization domain containing 2 (NOD2) and the receptor-interacting serine-threonine kinase 2 (RIPK2).; type: functional; details: Homo sapiens
[14] = system: BJ; assay: BJ-TERT fibroblast viability loss – cell-based, RAS-independent, luminescence, dose response (AID 1933); type: functional; details: Homo sapiens
[15] = biological target: Lytic switch protein BZLF1 (Epstein-Barr virus (strain B95-8) (HHV-4) (Human herpesvirus 4), UniProt P03206); assay: inhibition of BZLF1 ZTA DNA binding – biochemical, fluorescence polarization, Epstein-Barr virus, 1536-well, counter-screen for EBNA-1 inhibitor project, dose response (AID 2377); parameters: species or system human gammaherpesvirus 4;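 note: fluorescence polarization of Cy5-labelled ZRE DNA probe bound by purified Zta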
[16] = biological target: Epstein-Barr nuclear antigen 1 (Epstein-Barr virus (strain B95-8) (HHV-4) (Human herpesvirus 4), UniProt P03211); assay: inhibition of EBV nuclear antigen 1 DNA binding – biochemical, fluorescence polarization, 1536-well, dose response (AID 2381); parameters: species or system human gammaherpesvirus 4;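 note: fluorescence polarization of a Cy5 DNA probe bound by EBNA-1 protein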
[17] = cells
[18] = biological target: T4, Bcl-2-related protein A1 (Mus musculus, UniProt Q07440); assay: small-molecule antagonists of Bfl-1/BH3 interaction – biochemical, TR-FRET, mouse Bfl-1, confirmation (AID 621);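 note: TR-FRET binding of GST-Bfl-1 to FITC-labelled Bid peptide via terbium antibody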
T4 sequence (Q07440 whole entry): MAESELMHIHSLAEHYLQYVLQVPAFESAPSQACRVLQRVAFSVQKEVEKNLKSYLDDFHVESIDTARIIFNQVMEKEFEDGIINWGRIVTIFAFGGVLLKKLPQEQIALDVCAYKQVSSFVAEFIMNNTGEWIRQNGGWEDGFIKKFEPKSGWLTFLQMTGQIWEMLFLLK

[19] = biological target: T4, Bcl-2-related protein A1; assay: Bfl-1 binding inhibitors, SAR follow-up, biochemical, fluorescence polarization (AID 1070)
[20] = biological target: Voltage-gated inwardly rectifying potassium channel KCNH2 (Homo sapiens, UniProt Q12809); assay: concentration-dependent hERG rescue from blockers – cell-based, thallium flux, dose response (AID 2121); type: ADME
[21] = biological target: 5-hydroxytryptamine receptor 1A (Homo sapiens, UniProt P08908); type: functional
[22] = Luminescence Cell-Based Dose Retest to Confirm Inhibitors of Cancer Stem Cells. [Related pubchem assays (depositor defined):AID2717, AID2721]; type: functional; details: Homo sapiens
[23] = microbe, parasite or virus in culture; type: functional; details: Mycobacterium tuberculosis
[24] = viability of uninfected HEp-2 cells – cell-based, HTS, cytotoxicity control for RSV inhibitor project, dose response (AID 2410); type: functional; details: human respiratory syncytial virus
[25] = Luminescent dose response cell-based high throughput screening assay for inhibitors of the Janus kinase 2 mutant JAK2V617F. [Related pubchem assays: 1446 (Primary screen.), 1521 (Confirmation assay.), 1486 (Counter screen.)]; type: functional
[26] = biological target: T1, Estrogen receptor
[27] = system: HEK293; assay: cells; details: Homo sapiens
[28] = system: HEK293; assay: cells; details: Homo sapiens; remark: listed apart in the source
[29] = biological target: T5, Rac GTPase-activating protein 1 (Homo sapiens, UniProt Q9H0H5); assay: blockers of MgcRacGAP-driven Rac1 GTP hydrolysis – biochemical, ADP Hunter fluorescence, primary and confirmatory, confirmation (AID 624330); type: functional
T5 sequence (Q9H0H5 whole entry): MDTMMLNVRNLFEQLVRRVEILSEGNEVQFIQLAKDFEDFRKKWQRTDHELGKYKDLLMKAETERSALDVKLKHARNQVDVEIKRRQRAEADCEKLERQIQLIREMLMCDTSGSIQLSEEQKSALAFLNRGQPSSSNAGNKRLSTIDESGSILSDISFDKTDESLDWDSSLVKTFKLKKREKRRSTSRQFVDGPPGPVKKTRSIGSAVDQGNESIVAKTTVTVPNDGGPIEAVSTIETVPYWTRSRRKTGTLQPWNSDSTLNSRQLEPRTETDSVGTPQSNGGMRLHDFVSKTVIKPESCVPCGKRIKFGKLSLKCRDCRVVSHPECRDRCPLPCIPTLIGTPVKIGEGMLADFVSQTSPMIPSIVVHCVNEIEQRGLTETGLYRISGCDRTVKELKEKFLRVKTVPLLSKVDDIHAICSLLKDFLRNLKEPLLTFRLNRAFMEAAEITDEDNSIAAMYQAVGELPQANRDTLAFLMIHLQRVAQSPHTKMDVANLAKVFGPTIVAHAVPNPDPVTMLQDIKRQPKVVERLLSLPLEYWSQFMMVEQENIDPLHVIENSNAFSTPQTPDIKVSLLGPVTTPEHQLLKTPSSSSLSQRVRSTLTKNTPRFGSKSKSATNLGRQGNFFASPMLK

[30] = biological target: FAD-linked sulfhydryl oxidase ALR (Homo sapiens, UniProt P55789); assay: ALR-catalysed DTT oxidation blockers – biochemical, H2O2 detection, luminescence, cherry-pick, dose response (AID 493248)
[31] = biological target: Cytochrome P450 2C9 (Homo sapiens, UniProt P11712)
[32] = cells; type: functional

Chain of Lytic switch protein BZLF1 (P03206 whole entry): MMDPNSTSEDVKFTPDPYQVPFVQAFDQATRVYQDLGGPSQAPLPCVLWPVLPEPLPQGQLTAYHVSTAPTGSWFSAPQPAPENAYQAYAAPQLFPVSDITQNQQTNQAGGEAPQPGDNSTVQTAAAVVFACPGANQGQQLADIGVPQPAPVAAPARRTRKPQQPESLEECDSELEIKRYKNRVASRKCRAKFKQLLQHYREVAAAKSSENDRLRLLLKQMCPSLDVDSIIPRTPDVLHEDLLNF
Chain of Galanin receptor type 2 (O43603 whole entry): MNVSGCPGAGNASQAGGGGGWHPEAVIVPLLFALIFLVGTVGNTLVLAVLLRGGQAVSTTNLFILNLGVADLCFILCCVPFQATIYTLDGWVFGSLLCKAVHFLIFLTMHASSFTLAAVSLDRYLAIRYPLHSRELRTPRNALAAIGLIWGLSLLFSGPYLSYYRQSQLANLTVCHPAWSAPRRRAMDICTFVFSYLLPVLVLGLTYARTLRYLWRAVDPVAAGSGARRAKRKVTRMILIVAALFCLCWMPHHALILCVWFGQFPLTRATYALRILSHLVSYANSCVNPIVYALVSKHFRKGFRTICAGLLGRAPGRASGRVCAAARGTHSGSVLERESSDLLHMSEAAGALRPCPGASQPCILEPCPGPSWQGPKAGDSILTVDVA
Chain of Voltage-gated inwardly rectifying potassium channel KCNH2 (Q12809 whole entry): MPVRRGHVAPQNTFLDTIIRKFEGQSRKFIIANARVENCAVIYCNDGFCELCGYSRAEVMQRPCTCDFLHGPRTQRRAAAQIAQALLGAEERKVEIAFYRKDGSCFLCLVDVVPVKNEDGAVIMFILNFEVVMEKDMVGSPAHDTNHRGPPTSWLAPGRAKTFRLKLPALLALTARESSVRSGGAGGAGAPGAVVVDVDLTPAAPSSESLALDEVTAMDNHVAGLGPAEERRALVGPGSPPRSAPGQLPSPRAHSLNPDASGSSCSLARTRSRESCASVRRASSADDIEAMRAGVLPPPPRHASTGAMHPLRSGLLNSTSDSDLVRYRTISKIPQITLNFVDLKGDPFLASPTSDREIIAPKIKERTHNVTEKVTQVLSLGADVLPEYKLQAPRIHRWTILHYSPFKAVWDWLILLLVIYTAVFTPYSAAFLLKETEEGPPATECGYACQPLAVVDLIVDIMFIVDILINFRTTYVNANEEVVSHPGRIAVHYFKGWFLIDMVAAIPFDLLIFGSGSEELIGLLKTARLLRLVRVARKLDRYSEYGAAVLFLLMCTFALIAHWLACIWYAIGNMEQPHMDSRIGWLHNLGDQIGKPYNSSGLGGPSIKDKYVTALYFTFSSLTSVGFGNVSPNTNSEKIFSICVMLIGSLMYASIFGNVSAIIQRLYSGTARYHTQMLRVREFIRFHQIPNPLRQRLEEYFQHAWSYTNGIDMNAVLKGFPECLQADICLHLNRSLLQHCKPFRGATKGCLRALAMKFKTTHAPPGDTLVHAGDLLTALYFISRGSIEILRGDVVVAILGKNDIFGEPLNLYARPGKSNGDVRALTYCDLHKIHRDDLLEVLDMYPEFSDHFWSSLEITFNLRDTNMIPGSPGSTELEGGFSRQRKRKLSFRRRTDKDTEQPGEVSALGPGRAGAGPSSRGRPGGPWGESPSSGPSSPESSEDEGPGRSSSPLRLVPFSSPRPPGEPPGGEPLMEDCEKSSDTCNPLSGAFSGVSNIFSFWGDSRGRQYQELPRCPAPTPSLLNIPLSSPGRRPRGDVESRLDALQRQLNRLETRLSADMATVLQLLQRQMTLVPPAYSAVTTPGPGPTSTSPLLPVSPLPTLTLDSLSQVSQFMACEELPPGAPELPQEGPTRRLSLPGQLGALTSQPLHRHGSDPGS
Chain of Epstein-Barr nuclear antigen 1 (P03211 whole entry): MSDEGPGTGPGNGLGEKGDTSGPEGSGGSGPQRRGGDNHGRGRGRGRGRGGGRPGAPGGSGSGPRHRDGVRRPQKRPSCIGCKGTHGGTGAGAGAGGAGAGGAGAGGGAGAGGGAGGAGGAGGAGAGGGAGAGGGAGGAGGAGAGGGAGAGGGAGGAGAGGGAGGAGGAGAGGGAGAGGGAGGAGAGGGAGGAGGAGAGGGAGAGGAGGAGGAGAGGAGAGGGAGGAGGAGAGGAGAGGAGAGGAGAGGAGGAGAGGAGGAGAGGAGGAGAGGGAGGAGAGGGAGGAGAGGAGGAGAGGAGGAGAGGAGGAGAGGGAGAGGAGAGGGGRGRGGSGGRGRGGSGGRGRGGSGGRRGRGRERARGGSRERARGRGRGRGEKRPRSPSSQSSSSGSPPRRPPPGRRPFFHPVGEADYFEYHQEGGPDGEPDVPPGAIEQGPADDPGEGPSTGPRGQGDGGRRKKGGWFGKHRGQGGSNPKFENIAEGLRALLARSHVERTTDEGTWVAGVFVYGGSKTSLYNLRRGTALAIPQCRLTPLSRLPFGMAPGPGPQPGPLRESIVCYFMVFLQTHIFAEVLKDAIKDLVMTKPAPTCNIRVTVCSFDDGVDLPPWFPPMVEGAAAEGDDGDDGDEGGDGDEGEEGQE
T2 sequence (Q92731 whole entry): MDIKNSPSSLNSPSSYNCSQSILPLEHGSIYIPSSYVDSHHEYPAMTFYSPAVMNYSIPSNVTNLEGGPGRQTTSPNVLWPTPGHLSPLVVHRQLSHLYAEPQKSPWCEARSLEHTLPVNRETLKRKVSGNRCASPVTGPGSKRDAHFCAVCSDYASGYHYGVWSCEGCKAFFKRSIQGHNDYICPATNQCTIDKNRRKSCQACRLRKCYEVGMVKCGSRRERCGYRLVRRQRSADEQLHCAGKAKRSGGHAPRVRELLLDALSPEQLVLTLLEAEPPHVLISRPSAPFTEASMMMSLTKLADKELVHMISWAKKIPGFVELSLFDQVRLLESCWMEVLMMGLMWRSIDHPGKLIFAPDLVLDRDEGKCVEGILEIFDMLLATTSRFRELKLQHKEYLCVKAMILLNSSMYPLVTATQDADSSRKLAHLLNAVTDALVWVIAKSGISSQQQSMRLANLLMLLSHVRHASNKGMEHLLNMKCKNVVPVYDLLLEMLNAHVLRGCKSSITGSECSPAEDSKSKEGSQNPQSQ
Chain of 5-hydroxytryptamine receptor 1A (P08908 whole entry): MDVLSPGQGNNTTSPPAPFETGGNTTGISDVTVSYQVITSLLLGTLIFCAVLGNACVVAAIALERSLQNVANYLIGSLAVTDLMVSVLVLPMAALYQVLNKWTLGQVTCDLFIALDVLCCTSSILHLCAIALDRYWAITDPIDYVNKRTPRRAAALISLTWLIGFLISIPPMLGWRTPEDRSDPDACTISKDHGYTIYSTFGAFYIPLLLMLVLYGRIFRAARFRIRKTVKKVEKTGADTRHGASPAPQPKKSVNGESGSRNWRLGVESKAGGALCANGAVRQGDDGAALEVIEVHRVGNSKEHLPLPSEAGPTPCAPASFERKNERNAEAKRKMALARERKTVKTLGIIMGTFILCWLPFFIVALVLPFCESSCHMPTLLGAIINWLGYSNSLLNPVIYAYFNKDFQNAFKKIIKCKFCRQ
Chain of Cytochrome P450 2C9 (P11712 whole entry): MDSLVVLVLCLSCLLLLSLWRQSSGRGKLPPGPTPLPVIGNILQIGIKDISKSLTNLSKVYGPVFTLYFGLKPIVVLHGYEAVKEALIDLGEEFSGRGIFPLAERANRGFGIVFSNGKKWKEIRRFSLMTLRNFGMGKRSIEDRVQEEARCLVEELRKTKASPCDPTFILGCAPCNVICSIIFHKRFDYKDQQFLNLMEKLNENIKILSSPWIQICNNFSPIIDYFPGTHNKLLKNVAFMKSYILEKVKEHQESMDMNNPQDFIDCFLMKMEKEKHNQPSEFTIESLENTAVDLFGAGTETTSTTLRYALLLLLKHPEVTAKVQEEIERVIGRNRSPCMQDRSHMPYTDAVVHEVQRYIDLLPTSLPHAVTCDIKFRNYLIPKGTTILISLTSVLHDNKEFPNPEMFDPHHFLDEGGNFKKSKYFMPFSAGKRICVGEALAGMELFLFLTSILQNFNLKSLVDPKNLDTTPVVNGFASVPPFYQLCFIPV
Chain of FAD-linked sulfhydryl oxidase ALR (P55789 whole entry): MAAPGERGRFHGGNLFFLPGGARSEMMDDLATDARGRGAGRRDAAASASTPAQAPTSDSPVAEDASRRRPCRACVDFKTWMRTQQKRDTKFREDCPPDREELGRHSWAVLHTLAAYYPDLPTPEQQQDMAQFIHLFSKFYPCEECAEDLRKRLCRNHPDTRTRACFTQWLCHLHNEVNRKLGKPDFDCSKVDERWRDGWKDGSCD

In the case of `COc1ccc(NC(=O)CSc2nc(N)c(C(=O)Nc3ccc(N(C)C)cc3)s2)cc1`, the CC50 [1] is reported as > 40 µM (active).

With `Cc1ccc(C(=O)c2oc3ccccc3c2NC(=O)c2cc(-c3cc(C)ccc3O)[nH]n2)cc1` the CC50 [1] was 7.97 µM (active).

In the case of `C/C=C(/C(=C/C)c1ccc(O)cc1)c1ccc(O)cc1` [DIENESTROL], the EC50 [2] is reported as 13.2 µM (active), the IC50 [3] is reported as > 40 µM (inactive) and the IC50 [4] is reported as > 40 µM (inactive).

In the case of `O=C(COC(=O)C1CC2C=CC1C2)NCc1ccco1` (stereo not drawn), the IC50 [5] is reported as > 109 µM (not active) and the IC50 [6] is reported as 7.15 µM (active).

For `COc1cc(/C=C/[N+](=O)[O-])ccc1O`, the EC50 [7] was > 75 µM (inconclusive), the EC50 [8] was 4.46 µM (active) and the EC50 [9] was 8.18 µM (active). The IC50 [10] was > 4.6 µM (not active), the EC50 [11] was 10.3 µM (active) and the EC50 [12] was 15.5 µM (active). For the same compound, the IC50 [13] was 4.84 µM (active) and the EC50 [14] was 10.6 µM (inconclusive).

In the case of `COc1ccc(NC(=O)NCc2ccc3c(c2)OCO3)c(OC)c1`, the IC50 [15] is reported as > 111 µM (not active) and the IC50 [16] is reported as 18.3 µM (not active).

In the case of `COc1ccc(C(C(=O)NC2CCCC2)N(C(=O)c2snc(C(N)=O)c2N)c2cc(C)ccc2OC)cc1OC` (stereo not drawn), the IC50 [17] is reported as 6.11 µM (active).

In the case of `Cc1ccc(S(=O)(=O)NCc2ccncc2)cc1`, the IC50 [10] is reported as > 42 µM (not active).

In the case of `c1ccc(-n2nnc(-c3cnc4ccccc4c3)n2)cc1`, the IC50 [18] is reported as > 100 µM (not active) and the IC50 [19] is reported as > 100 µM (not active).

With `Clc1ncccc1-c1nnn(-c2ccccc2)n1` the IC50 [18] was > 100 µM (not active) and the IC50 [19] was > 100 µM (not active).

With `CC1CCCCC1NC(=S)NC(=O)c1sc2ccccc2c1Cl` (stereo not drawn) the EC50 [20] was 4.87 µM (active).

In the case of `CN1CC=C(c2c[nH]c3ccccc23)CC1`, the EC50 [21] is reported as 12 µM (not active).

For `O=C(NC(=S)Nc1ccc(N2CCCCC2)c(Cl)c1)c1cccs1`, the EC50 [20] was 0.2 µM (active), the AC50 [22] was 6.16 µM (active) and the CC50 [23] was > 40 µM (active). For the same compound, the CC50 [24] was 17.3 µM (active).

In the case of `Nc1nc(CCl)nc(N(c2ccccc2)c2ccccc2)n1`, the EC50 [7] is reported as 12.1 µM (inconclusive), the EC50 [8] is reported as 0.229 µM (active) and the EC50 [11] is reported as 0.674 µM (active). The EC50 [12] was 2.65 µM (active), the EC50 [14] was 0.652 µM (inconclusive) and the IC50 [25] was 0.721 µM (active).

For `O=C(Nc1ccccc1[N+](=O)[O-])C1=C(O)CCn2c1nc1ccccc12`, the IC50 [26] was 18.6 µM (active), the EC50 [27] was > 59.7 µM (inactive) and the EC50 [28] was > 59.7 µM (inactive).

For `CN(c1ccccc1)S(=O)(=O)c1cccc(C(=O)NCCc2ccc(O)c(O)c2)c1`, the IC50 [29] was 69.2 µM (active), the AC50 [30] was 4.37 µM (active) and the IC50 [25] was 7.29 µM (active).

For `Cn1cc(/C=C2/SC(=O)N(CC(=O)Nc3ccc4c(c3)OCO4)C2=O)c2ccccc21`, the IC50 [15] was > 111 µM (not active), the IC50 [16] was 5.72 µM (active) and the AC50 [31] was 7.08 µM (inconclusive).

In the case of `CCOc1ccccc1N1C(=O)NC(=O)C(CCc2ccncc2)(CCc2ccncc2)C1=O`, the EC50 [2] is reported as 12.7 µM (active).

For `CCCCC1CCC(C(=O)Nc2ccc(S(=O)(=O)Nc3nccs3)cc2)CC1` (stereo not drawn), the IC50 [32] was 14.5 µM (active), the IC50 [17] was 36.5 µM (active) and the CC50 [24] was 34.3 µM (active).
